Data published in US12600714B2, “Substituted pyrazinecarboxamide compounds for treating diseases related to EGFR mutation” (WIGEN BIOMEDICINE TECHNOLOGY (SHANGHAI) CO., LTD., priority 2020, dated 2026).

Test system: EGFR (del19/T790M/C797S)
Experiment: HTRF inhibitory activity assay against EGFR (del19/T790M/C797S) enzyme
Type: biochemical
Method: Inhibitory Activity Assay of the Compounds Disclosed Herein Against EGFR (del19/T790M/C797S), EGFR (L858R/T790M/C797S) or EGFR (WT) Enzymes
The inhibitory effects of the compounds against EGFR (del19/T790M/C797S), EGFR (L858R/T790M/C797S) or EGFR (WT) enzyme activity was determined by using HTRF. The procedures are as follows:
The WT or mutant EGFR proteins were incubated with a serially diluted compounds at 28° C. for 10 min followed by addition of biotin-labeled general tyrosine kinase (TK) substrate and ATP. The mixture was incubated at room temperature for 40 min for reaction. After the termination of the reaction, an Eu3+-Cryptate-labeled antibody against TK and streptavidin-XL665 were added and the mixture was incubated at room temperature for 60 min. The luminescences at 615 nm and 665 nm were detected and the ratio of 665/615 was calculated to quantify the level of TK substrate phosphorylation. Inhibition % and IC50 of the compounds were calculated relative to the control group.

Row | SMILES | EGFR (del19/T790M/C797S) inhibition (%) (0.3 nM compound)
1 | COc1cccc(-c2nc(C(N)=O)c(Nc3ccc(N4CCC(N5CCN(C)CC5)CC4)cc3)nc2NC2CCOCC2)c1 [compound 51] | + (+ indicates an inhibition less than or equal to 20%)
2 | CN1CCN(C2CCN(c3ccc(Nc4nc(NC5CCOCC5)c(-c5ccccc5C(F)F)nc4C(N)=O)cc3)CC2)CC1 [compound 82] | + (+ indicates an inhibition less than or equal to 20%)
3 | CN1CCN(C2CCN(c3ccc(Nc4nc(NC5CC5)c(-c5ccncc5)nc4C(N)=O)cc3)CC2)CC1 [compound 631] | +++ (+++ indicates an inhibition greater than 50%.)
4 | CN1CCN(C2CCN(c3ccc(Nc4nc(N5CCCC5)c(-c5ccccc5)nc4C(N)=O)cc3)CC2)CC1 [compound 17] | + (+ indicates an inhibition less than or equal to 20%)
5 | CN1CCN(C2CCN(c3ccc(Nc4nc(NC5CCC5)c(-c5ccccc5)nc4C(N)=O)cc3)CC2)CC1 [compound 30] | ++ (++ indicates an inhibition from 20% to 50%)
6 | CN1CCN(C2CCN(c3ccc(Nc4nc(NC5CC5)c(-c5cccc6[nH]ccc56)nc4C(N)=O)cc3F)CC2)CC1 [compound 531] | +++ (+++ indicates an inhibition greater than 50%.)
7 | CN1CCN(C2CCN(c3ccc(Nc4nc(Oc5ccccc5)c(-c5ccccc5)nc4C(N)=O)cc3)CC2)CC1 [compound 6] | + (+ indicates an inhibition less than or equal to 20%)
8 | CN1CCN(C2CCN(c3ccc(Nc4nc(O[C@H]5CCOC5)c(-c5ccccc5)nc4C(N)=O)cc3)CC2)CC1 [compound 18] | + (+ indicates an inhibition less than or equal to 20%)
9 | COc1cc(-c2nc(C(N)=O)c(Nc3ccc(N4CCC(N5CCN(C)CC5)CC4)cc3)nc2NC2CCOCC2)ccn1 [compound 67] | + (+ indicates an inhibition less than or equal to 20%)
10 | CN1CCN(C2CCN(c3ccc(Nc4nc(NC5CCOCC5)c(-c5cnn(C)c5)nc4C(N)=O)cc3)CC2)CC1 [compound 40] | + (+ indicates an inhibition less than or equal to 20%)
11 | CN1CCN(C2CCN(c3ccc(Nc4nc(N[C@H]5CCOC5)c(-c5ccccc5)nc4C(N)=O)cc3)CC2)CC1 [compound 70] | + (+ indicates an inhibition less than or equal to 20%)
12 | CN1CCN(C2CCN(c3ccc(Nc4nc(N[C@H]5C[C@H](O)C5)c(-c5cc[nH]n5)nc4C(N)=O)cc3F)CC2)CC1 [compound 621] | +++ (+++ indicates an inhibition greater than 50%.)
13 | CN1CCN(C2CCN(c3ccc(Nc4nc(N[C@H]5CC[C@@H](O)CC5)c(-c5ccccc5)nc4C(N)=O)cc3)CC2)CC1 [compound 24] | ++ (++ indicates an inhibition from 20% to 50%)
14 | CN1CCN(C2CCN(c3ccc(Nc4nc(NC5CCOC6(CC6)C5)c(-c5ccccn5)nc4C(N)=O)cc3)CC2)CC1 (stereo not shown) [compound 263] | ++ (++ indicates an inhibition from 20% to 50%)
15 | CN1CCN(C2CCN(c3ccc(Nc4nc(NC5CC6(COC6)C5)c(-c5ccncc5)nc4C(N)=O)cc3F)CC2)CC1 [compound 634] | +++ (+++ indicates an inhibition greater than 50%.)
16 | CN1CCN(C2CCN(c3ccc(Nc4nc(NC5CCCC5O)c(-c5cc[nH]n5)nc4C(N)=O)cc3F)CC2)CC1 (stereo not shown) [compound 624] | ++ (++ indicates an inhibition from 20% to 50%)

Row | SMILES | EGFR (del19/T790M/C797S) inhibition (%) (0.3 nM compound)
17 | CN1CCN(C2CCN(c3ccc(Nc4nc(NC5CCOCC5)c(C5=CCNC5)nc4C(N)=O)cc3)CC2)CC1 [compound 68] | + (+ indicates an inhibition less than or equal to 20%)
18 | CC(C)Nc1nc(Nc2ccc(N3CCC(N4CCN(C)CC4)CC3)c(F)c2)c(C(N)=O)nc1-c1cc[nH]n1 [compound 622] | +++ (+++ indicates an inhibition greater than 50%.)
19 | CN1CCN(C2CCN(c3ccc(Nc4nc(NC5CC6(CCOCC6)C5)c(-c5ccccn5)nc4C(N)=O)cc3)CC2)CC1 [compound 271] | ++ (++ indicates an inhibition from 20% to 50%)
20 | CN1CCN(c2ccc(Nc3nc(NC4CCOCC4)c(-c4ccccc4C(N)=O)nc3C(N)=O)cc2)CC1 [compound 36] | + (+ indicates an inhibition less than or equal to 20%)
21 | CN1CCN(C2CCN(c3ccc(Nc4nc(NC5CCOCC5)c(-c5ccc(F)cc5)nc4C(N)=O)cc3)CC2)CC1 [compound 64] | + (+ indicates an inhibition less than or equal to 20%)
22 | CN1CCN(C2CCN(c3ccc(Nc4nc(NC5CC6(COC6)C5)c(-c5ccnc6[nH]ccc56)nc4C(N)=O)cc3F)CC2)CC1 [compound 630] | +++ (+++ indicates an inhibition greater than 50%.)
23 | CN1CCN(C2CCN(c3ccc(Nc4nc(OC5CCOCC5)c(-c5ccccc5)nc4C(N)=O)cc3)CC2)CC1 [compound 12] | + (+ indicates an inhibition less than or equal to 20%)
24 | [2H]C([2H])([2H])N1CCN(C2CCN(c3ccc(Nc4nc(NC5CCOCC5)c(-c5ccccn5)nc4C(N)=O)cc3)CC2)CC1 [compound 206] | ++ (++ indicates an inhibition from 20% to 50%)
25 | CN1CCN(C2CCN(c3ccc(Nc4nc(N[C@@H]5CC[C@H](O)C5)c(-c5ccccc5)nc4C(N)=O)cc3)CC2)CC1 [compound 136, 5-(((1R,3S)-3-hydroxycyclopentyl)amino)-3-((4-(4-(4-methylpiperazin-1-yl)piperidin-1-yl)phenyl)amino)-6-phenylpyrazine-2-carboxamide] | ++ (++ indicates an inhibition from 20% to 50%)
26 | CN1CCN(C2CCN(c3ccc(Nc4nc(NC5CCCC5O)c(-c5cc[nH]n5)nc4C(N)=O)cc3)CC2)CC1 (stereo not shown) [compound 618] | ++ (++ indicates an inhibition from 20% to 50%)
27 | CN1CCN(C2CCN(c3ccc(Nc4nc(NC5CCOCC5)c(-c5ccc(Cl)cc5)nc4C(N)=O)cc3)CC2)CC1 [compound 65] | ++ (++ indicates an inhibition from 20% to 50%)
28 | CN1CCN(C2CCN(c3ccc(Nc4nc(NC5CCOCC5)c(-c5ccccc5N)nc4C(N)=O)cc3)CC2)CC1 [compound 98] | + (+ indicates an inhibition less than or equal to 20%)
29 | CN1CC=C(c2nc(C(N)=O)c(Nc3ccc(N4CCC(N5CCN(C)CC5)CC4)cc3)nc2NC2CCOCC2)CC1 [compound 102] | + (+ indicates an inhibition less than or equal to 20%)
30 | CN1CCN(C2CCN(c3ccc(Nc4nc(NC5CCC(O)C5)c(-c5cc[nH]n5)nc4C(N)=O)cc3)CC2)CC1 (stereo not shown) [compound 617] | ++ (++ indicates an inhibition from 20% to 50%)
31 | CN1CCN(C2CCN(c3ccc(Nc4nc(NC5CC5)c(-c5ccncc5)nc4C(N)=O)cc3F)CC2)CC1 [compound 632] | +++ (+++ indicates an inhibition greater than 50%.)
